Assay results as given in patent publication US9751907B2, “Arbekacin derivative, and production and use thereof” (MEIJI SEIKA PHARMA CO., LTD., priority 2013, dated 2017).

Experiments:
[1] = Storage stability of the solid at 40° C. and 75% humidity, related substances analysed by HPLC; type: physicochemical; details: for Amount of related substances increased: related substance content: 40° C., 75% RH
Description: The HPLC analysis conditions were as described in (3) Dibekacin and (4) Related substance in the purity test for arbekacin sulfate in the Japanese Pharmacopoeia Sixteen Edition.
Specifically, arbekacin free base was stored at 40° C. and a humidity of 75% for 1 month and 2 months, and the amount of related substances changed was analyzed by HPLC.

[2] = Moisture-absorbing properties on storage at 40° C. at defined humidity; type: physicochemical; details: stored at 40° C.

In the case of `NCC[C@H](O)C(=O)N[C@@H]1C[C@H](N)[C@@H](O[C@H]2O[C@H](CN)CC[C@H]2N)[C@H](O)[C@H]1O[C@H]1O[C@H](CO)[C@@H](O)[C@H](N)[C@H]1O` [arbekacin free base, Arbekacin], the “Amount of related substances increased: related substance content” value ([1]; 1-month storage) is reported as 1.7%, the “Amount of related substances increased: related substance content” value ([1]; 2-month storage) is reported as 4.3% and the “amount of the related substances changed (i.e., the amount increased)” value ([1]; stored at 40° C. and a humidity of 75% for 1 month and 2 months) is reported as at least 4%. The moisture-absorbing properties ([2]; Humidity 12%) was 1.60, the moisture-absorbing properties ([2]; Humidity 22%) was 4.62 and the moisture-absorbing properties ([2]; Humidity 30%) was 6.25. The moisture-absorbing properties ([2]; Humidity 43%) was 7.54 and the moisture-absorbing properties ([2]; Humidity 53%) was 9.14.
